Measurements published in patent publication US12157717B2, “Compounds for the treatment of bovine or swine respiratory disease” (Intervet Inc., priority 2018, dated 2024).
≈ marks a conversion by molar mass, not a printed value.

Experiments:
Assay type in all cases: cell-based
[1] = system: Mannheimia haemolytica MH 6357 (M7/2); assay: MIC, broth-microdilution (CLSI), strain MH 6357; settings: Mannheimia haemolytica M7/2, reference strain (cattle infection strain)
Procedure: (§1) The Minimum inhibitory concentrations (MIC) of compounds according to the invention for a number of veterinary bacterial pathogens were determined by the broth-microdilution method according to CLSI document VETO 1-A4.
(§2) Microdilution trays containing a doubling dilution series of the test compound were used for the tests. The MIC results were interpreted according to the CLSI documents VET01-S3. The lowest concentration of compound at which no visible growth (i.e. no turbidity) detected by the unaided eye was recorded as the MIC.

[2] = system: Mannheimia haemolytica MH 6374 (ATCC 33396); assay: MIC, broth-microdilution (CLSI), strain MH 6374; settings: Mannheimia haemolytica ATCC 33396, reference strain
Procedure: as §1, §2

[3] = system: Mannheimia haemolytica MH 10720 (154); assay: MIC, broth-microdilution (CLSI), strain MH 10720; settings: Mannheimia haemolytica 154, BRD field isolate
Procedure: as §1, §2

[4] = system: Mannheimia haemolytica MH 12587 (1071), macrolide-resistance: erm+, E+; assay: MIC, broth-microdilution (CLSI), strain MH 12587; settings: Mannheimia haemolytica 1071, BRD field isolate
Procedure: as §1, §2

[5] = system: Mannheimia haemolytica MH 13065 (XB0446-6003.9); assay: MIC, broth-microdilution (CLSI), strain MH 13065; settings: Mannheimia haemolytica XB0446-6003.9, BRD field isolate
Procedure: as §1, §2

[6] = system: Mannheimia haemolytica MH 13093 (XB0472-6014.1); assay: MIC, broth-microdilution (CLSI), strain MH 13093; settings: Mannheimia haemolytica XB0472-6014.1, BRD field isolate
Procedure: as §1, §2

[7] = system: Pasteurella multocida PM 6267 (P 2225 (L386)); assay: MIC, broth-microdilution (CLSI), strain PM 6267; settings: Pasteurella multocida P 2225 (L386), reference strain (mouse infection strain)
Procedure: as §1, §2

[8] = system: Pasteurella multocida PM 6391 (ATCC 43137); assay: MIC, broth-microdilution (CLSI), strain PM 6391; settings: Pasteurella multocida ATCC 43137, reference strain
Procedure: as §1, §2

[9] = system: Pasteurella multocida PM 10775 (080130003051); assay: MIC, broth-microdilution (CLSI), strain PM 10775; settings: Pasteurella multocida 080130003051, BRD field isolate
Procedure: as §1, §2

[10] = system: Pasteurella multocida PM 12080 (IV102277-0093); assay: MIC, broth-microdilution (CLSI), strain PM 12080; settings: Pasteurella multocida IV102277-0093, BRD field isolate
Procedure: as §1, §2

SMILES	MIC MH 6357 [1]	MIC MH 6374 [2]	MIC MH 10720 [3]	MIC MH 12587 [4]	MIC MH 13065 [5]	MIC MH 13093 [6]	MIC PM 6267 [7]	MIC PM 6391 [8]	MIC PM 10775 [9]	MIC PM 12080 [10]
CNC(=O)C(NC(=O)c1ccc(C#Cc2ccc(CNCCOC)cc2)cc1)C(=O)NO (stereo not drawn) [Compound 3]	1.6 µM (≈ 0.702 µg/mL)	3.1 µM (≈ 1.36 µg/mL)	0.8 µM (≈ 0.351 µg/mL)	6.3 µM (≈ 2.76 µg/mL)	1.6 µM (≈ 0.702 µg/mL)	1.6 µM (≈ 0.702 µg/mL)	0.2 µM (≈ 0.0877 µg/mL)	0.4 µM (≈ 0.175 µg/mL)	≤0.1 µM	0.4 µM (≈ 0.175 µg/mL)
CNC(=O)C(NC(=O)c1ccc(C#Cc2ccc(CNC3CCCC3)cc2)cc1)C(=O)NO (stereo not drawn) [Compound 9]	6.3 µM (≈ 2.83 µg/mL)	25 µM (≈ 11.2 µg/mL)	3.1 µM (≈ 1.39 µg/mL)	25 µM (≈ 11.2 µg/mL)	12.5 µM (≈ 5.61 µg/mL)	12.5 µM (≈ 5.61 µg/mL)	0.4 µM (≈ 0.179 µg/mL)	0.4 µM (≈ 0.179 µg/mL)	0.2 µM (≈ 0.0897 µg/mL)	0.4 µM (≈ 0.179 µg/mL)
CNC(=O)C(NC(=O)c1ccc(C#Cc2ccc(CN3CCCC3)cc2)cc1)C(=O)NO (stereo not drawn) [Compound 7]	3.1 µM (≈ 1.35 µg/mL)	12.5 µM (≈ 5.43 µg/mL)	1.6 µM (≈ 0.695 µg/mL)	12.5 µM (≈ 5.43 µg/mL)	12.5 µM (≈ 5.43 µg/mL)	6.3 µM (≈ 2.74 µg/mL)	≤0.1 µM	0.4 µM (≈ 0.174 µg/mL)	0.2 µM (≈ 0.0869 µg/mL)	0.8 µM (≈ 0.348 µg/mL)
CNC(=O)C(NC(=O)c1ccc(C#Cc2ccc(CNCc3nccs3)cc2)cc1)C(=O)NO (stereo not drawn) [Compound 18]	0.4 µM (≈ 0.191 µg/mL)	0.4 µM (≈ 0.191 µg/mL)	0.2 µM (≈ 0.0955 µg/mL)	0.8 µM (≈ 0.382 µg/mL)	0.4 µM (≈ 0.191 µg/mL)	0.4 µM (≈ 0.191 µg/mL)	≤0.1 µM	≤0.1 µM	≤0.1 µM	≤0.1 µM
CNC(=O)C(NC(=O)c1ccc(C#Cc2ccc(CNCc3ccccc3)cc2)cc1)C(=O)NO (stereo not drawn) [Compound 5]	0.4 µM (≈ 0.188 µg/mL)	0.8 µM (≈ 0.376 µg/mL)	≤0.1 µM	1.6 µM (≈ 0.753 µg/mL)	0.8 µM (≈ 0.376 µg/mL)	1.6 µM (≈ 0.753 µg/mL)	≤0.1 µM	0.2 µM (≈ 0.0941 µg/mL)	≤0.1 µM	≤0.1 µM
CNC(=O)C(NC(=O)c1ccc(C#Cc2ccc(CNCc3ccco3)cc2)cc1)C(=O)NO (stereo not drawn) [Compound 14]	0.4 µM (≈ 0.184 µg/mL)	0.4 µM (≈ 0.184 µg/mL)	0.2 µM (≈ 0.0921 µg/mL)	0.4 µM (≈ 0.184 µg/mL)	0.4 µM (≈ 0.184 µg/mL)	0.8 µM (≈ 0.368 µg/mL)	≤0.1 µM	≤0.1 µM	≤0.1 µM	≤0.1 µM
CNC(=O)C(C(=O)NO)N(C)C(=O)c1ccc(C#Cc2ccc(CN3CCCC3)cc2)cc1 (stereo not drawn) [Compound 25]	6.3 µM (≈ 2.83 µg/mL)	6.3 µM (≈ 2.83 µg/mL)	3.1 µM (≈ 1.39 µg/mL)	12.5 µM (≈ 5.61 µg/mL)	6.3 µM (≈ 2.83 µg/mL)	12.5 µM (≈ 5.61 µg/mL)	1.6 µM (≈ 0.718 µg/mL)	3.1 µM (≈ 1.39 µg/mL)	0.4 µM (≈ 0.179 µg/mL)	1.6 µM (≈ 0.718 µg/mL)
CNC(=O)C(NC(=O)c1ccc(C#Cc2ccc(CNC3CC3)cc2)cc1)C(=O)NO (stereo not drawn) [Compound 1]	0.4 µM (≈ 0.168 µg/mL)	0.4 µM (≈ 0.168 µg/mL)	≤0.1 µM	0.8 µM (≈ 0.336 µg/mL)	0.4 µM (≈ 0.168 µg/mL)	1.6 µM (≈ 0.673 µg/mL)	≤0.1 µM	≤0.1 µM	≤0.1 µM	≤0.1 µM
CNC(=O)C(NC(=O)c1ccc(C#Cc2ccc(CN3CCOCC3)cc2)cc1)C(=O)NO (stereo not drawn) [Compound 4]	1.6 µM (≈ 0.721 µg/mL)	3.1 µM (≈ 1.4 µg/mL)	0.4 µM (≈ 0.18 µg/mL)	6.3 µM (≈ 2.84 µg/mL)	1.6 µM (≈ 0.721 µg/mL)	1.6 µM (≈ 0.721 µg/mL)	≤0.1 µM	≤0.1 µM	≤0.1 µM	≤0.1 µM
CNC(=O)C(NC(=O)c1ccc(C#Cc2ccc(CNCC(F)(F)F)cc2)cc1)C(=O)NO (stereo not drawn) [Compound 19]	0.2 µM (≈ 0.0925 µg/mL)	0.4 µM (≈ 0.185 µg/mL)	≤0.1 µM	0.8 µM (≈ 0.37 µg/mL)	0.2 µM (≈ 0.0925 µg/mL)	0.2 µM (≈ 0.0925 µg/mL)	≤0.1 µM	≤0.1 µM	≤0.1 µM	≤0.1 µM
CNC(=O)C(C(=O)NO)N(C)C(=O)c1ccc(C#Cc2ccc(CNCc3ccccc3)cc2)cc1 (stereo not drawn) [Compound 23]	1.6 µM (≈ 0.775 µg/mL)	0.8 µM (≈ 0.388 µg/mL)	0.4 µM (≈ 0.194 µg/mL)	3.1 µM (≈ 1.5 µg/mL)	1.6 µM (≈ 0.775 µg/mL)	1.6 µM (≈ 0.775 µg/mL)	0.4 µM (≈ 0.194 µg/mL)	1.6 µM (≈ 0.775 µg/mL)	≤0.1 µM	0.8 µM (≈ 0.388 µg/mL)
CNC(=O)C(C(=O)NO)N(C)C(=O)c1ccc(C#Cc2ccc(CNCc3nccs3)cc2)cc1 (stereo not drawn) [Compound 29]	6.3 µM (≈ 3.1 µg/mL)	3.1 µM (≈ 1.52 µg/mL)	1.6 µM (≈ 0.787 µg/mL)	12.5 µM (≈ 6.14 µg/mL)	6.3 µM (≈ 3.1 µg/mL)	12.5 µM (≈ 6.14 µg/mL)	0.8 µM (≈ 0.393 µg/mL)	3.1 µM (≈ 1.52 µg/mL)	0.2 µM (≈ 0.0983 µg/mL)	1.6 µM (≈ 0.787 µg/mL)
C#CCNCc1ccc(C#Cc2ccc(C(=O)NC(C(=O)NC)C(=O)NO)cc2)cc1 (stereo not drawn) [Compound 20]	0.2 µM (≈ 0.0837 µg/mL)	0.2 µM (≈ 0.0837 µg/mL)	≤0.1 µM	0.8 µM (≈ 0.335 µg/mL)	0.2 µM (≈ 0.0837 µg/mL)	0.4 µM (≈ 0.167 µg/mL)	≤0.1 µM	≤0.1 µM	≤0.1 µM	≤0.1 µM
CNC(=O)C(C(=O)NO)N(C)C(=O)c1ccc(C#Cc2ccc(CNCCOC)cc2)cc1 (stereo not drawn) [Compound 21]	3.1 µM (≈ 1.4 µg/mL)	6.3 µM (≈ 2.85 µg/mL)	1.6 µM (≈ 0.724 µg/mL)	12.5 µM (≈ 5.66 µg/mL)	3.1 µM (≈ 1.4 µg/mL)	12.5 µM (≈ 5.66 µg/mL)	1.6 µM (≈ 0.724 µg/mL)	3.1 µM (≈ 1.4 µg/mL)	0.4 µM (≈ 0.181 µg/mL)	1.6 µM (≈ 0.724 µg/mL)
CNC(=O)C(NC(=O)c1ccc(C#Cc2ccc(CNCc3ccnc(Cl)c3)cc2)cc1)C(=O)NO (stereo not drawn) [Compound 12]	0.2 µM (≈ 0.101 µg/mL)	0.4 µM (≈ 0.202 µg/mL)	≤0.1 µM	0.8 µM (≈ 0.405 µg/mL)	0.4 µM (≈ 0.202 µg/mL)	0.4 µM (≈ 0.202 µg/mL)	≤0.1 µM	≤0.1 µM	≤0.1 µM	≤0.1 µM
